In patent US20250195474A1, “Piezo Inhibition for Wound Healing” (priority 2022, published 2025):
No end group written: not given here.

What was measured:
dorsal excisional wounds = experiment: Splinted dorsal excisional wounding with inhibitor injected at POD 0; type: in vivo, mouse
wounds = experiment: CODEX spatial protein analysis of POD 14 wounds; type: in vivo, mouse; settings: POD 14, vs PBS
Source text: (§1) To spatially phenotype the pig specimens, we used Co-Detection by Indexing (CODEX), a novel assay in which markers are labeled with oligonucleotide-conjugated antibodies and iteratively imaged between cyclic additions and washouts of dye-labeled oligonucleotides. A custom CODEX panel was designed to assess wound cells within the tissue see Table 1). In brief, primary antibodies were individually barcoded and validated using the commercial supplier's protocols. OCT for mouse or paraffin blocks for human xenograft (n=3 per group) were sectioned at 8 μm thickness onto coverslips for CODEX antibody staining. Antigens were retrieved by standard citrate-EDTA processing prior to addition of CODEX antibodies. Using a CODEX-integrated Keyence BZ-X instrument (Akoya Biosciences) image acquisition was then performed. Using software from Akoya Biosciences the raw images were process, with cell segmentation, and rendering.
(§2) The CODEX was visualized using Akoya Biosciences Multiplex Analysis Viewer (MAV) in ImageJ. The resulting .fcs files were then concatenated in FlowJo and imported into the Monocle3 and STvEA R packages for further analysis. After debris removal, the processed UMAP manifold was analyzed through Monocle3 with a post-manifold threshold of >10,000 cells per cluster. Analysis of the protein staining patterns was then used to assign cell types. The cell interactions were then inferred using STvEA for cell types at >2.5% of total abundance at k=20 nearest neighbors to quantify cell spatial interactions, and differential interaction maps were generated using graph scores.

[1] = system: human foreskin xenograft wounds; experiment: CODEX analysis of human xenograft wounds at POD 14; type: in vivo
Source text: as §1, §2
While scRNA-seq of human xenografts investigates human fibroblast subpopulations at a transcriptomic level, we further utilized CODEX to analyze spatially defined protein expression and cellular organization (FIG. 13A; markers shown in Table 1 right column). Specifically, we compared the spatial microenvironment of PBS, P1i, and unwounded skin at POD 14. […]

human adipocytes = experiment: Human adipocyte-populated collagen I hydrogels with or without mechanical stretch; settings: 10% equibiaxial strain, 7 days

GsMTx4 (GCLEFWWKCNPNDDKCCRPKLKCSKLFKLCNFSF; ends and bridges not checked; cysteine pairing not given here; UniProt Q7YT39 47-80, looked up) [P1i]
time to complete wound re-epithelialization (dorsal excisional wounds; 30 uL of 0.2 mg/ml intradermal at wound edge, POD 0): did not significantly affect
Oil Red O staining and IF for cytokeratins 14/19 (regenerating appendages) (dorsal excisional wounds; POD 14): presence of putative regenerating sebaceous glands/HF
mechanical properties (tensile testing, Young's modulus) (dorsal excisional wounds; POD 14): reverted scars to more unwounded-like mechanical properties
adipocyte-derived fibroblasts (ADFs) in wounds (dorsal excisional wounds; POD 14, FACS and histology): absent
structures consistent with unerupted hair follicles (dorsal excisional wounds; POD 14, single injection at POD 0): numerous structures morphologically consistent with unerupted hair follicles
Col1 and α-SMA (dorsal excisional wounds; POD 14 and POD 30): reduced
ECM density (dorsal excisional wounds; POD 14 and POD 30): less dense
hair follicle formation (dorsal excisional wounds; POD 30): allowed for hair follicle formation
Lef1 (new hair follicle formation) (wounds): highly expressed
adipocyte-fibroblast spatial interactions (CODEX) (wounds): reduced adipocyte-fibroblast interactions
individual adipocyte-fibroblast subpopulation interactions (CODEX) (wounds): enriching the interactions of adipocyte cluster 2 with fibroblast clusters 2 and 4
interactions between fibroblasts and adipocytes ([1]; POD 14): PBS-treated wounds showed broadly enriched interactions between fibroblasts and adipocytes compared to P1i-treated wounds
interactions of adipocytes 4 ([1]; POD 14): strong crosstalk between adipocytes 4 and epithelial cells
relative proportions of CODEX defined adipocyte clusters ([1]; POD 14, vs PBS, p<0.05): fewer of the adipocyte 1 subtype and more of the adipocyte 4 subtype
stretch-induced hypertrophy of human adipocytes (human adipocytes): reversed
